In experiment [1] the target is T1, Peroxisome proliferator-activated receptor alpha (Homo sapiens) (UniProt Q07869).
T1 sequence (whole entry): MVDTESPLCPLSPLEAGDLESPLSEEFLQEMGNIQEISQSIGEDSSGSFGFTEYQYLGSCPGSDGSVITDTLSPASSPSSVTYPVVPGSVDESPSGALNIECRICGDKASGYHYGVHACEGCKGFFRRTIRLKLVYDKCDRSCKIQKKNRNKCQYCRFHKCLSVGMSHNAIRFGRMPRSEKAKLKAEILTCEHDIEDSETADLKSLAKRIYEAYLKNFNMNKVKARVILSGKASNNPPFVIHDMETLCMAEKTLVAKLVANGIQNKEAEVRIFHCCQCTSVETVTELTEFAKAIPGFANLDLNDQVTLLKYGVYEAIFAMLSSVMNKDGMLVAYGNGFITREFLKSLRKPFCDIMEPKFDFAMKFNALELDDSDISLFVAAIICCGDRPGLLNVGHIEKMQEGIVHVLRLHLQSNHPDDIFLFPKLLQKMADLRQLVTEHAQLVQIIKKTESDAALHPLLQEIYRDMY
As to the kind of experiment: Transactivation of Gal4-tagged PPARalpha ligand binding domain (unknown origin) expressed in COS7 cells at 30 uM measured after overnight incubation by luciferase reporter gene assay. The format is cell-based. Conditions: COS-7.

Experiment [2] has as its target T2, Peroxisome proliferator-activated receptor gamma (Homo sapiens, UniProt P37231).
T2 sequence (P37231 whole entry): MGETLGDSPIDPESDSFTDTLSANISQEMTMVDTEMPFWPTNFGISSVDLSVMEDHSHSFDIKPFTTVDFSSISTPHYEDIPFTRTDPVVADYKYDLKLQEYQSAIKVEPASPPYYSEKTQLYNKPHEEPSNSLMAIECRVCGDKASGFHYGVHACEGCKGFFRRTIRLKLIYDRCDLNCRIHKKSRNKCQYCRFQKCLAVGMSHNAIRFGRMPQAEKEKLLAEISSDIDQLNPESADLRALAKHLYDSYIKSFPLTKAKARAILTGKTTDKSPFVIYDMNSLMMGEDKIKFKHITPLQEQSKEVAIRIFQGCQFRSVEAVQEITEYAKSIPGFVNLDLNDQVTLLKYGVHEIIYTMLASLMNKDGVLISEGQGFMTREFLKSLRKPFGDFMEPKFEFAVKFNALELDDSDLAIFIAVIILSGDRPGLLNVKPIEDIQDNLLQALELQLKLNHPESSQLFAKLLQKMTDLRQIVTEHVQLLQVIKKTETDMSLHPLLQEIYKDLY
As to the kind of experiment: Transactivation of Gal4-tagged PPARgamma ligand binding domain (unknown origin) expressed in COS7 cells measured after overnight incubation by luciferase reporter gene assay. The format is cell-based, COS-7.

In experiment [3] the target is T3, Peroxisome proliferator-activated receptor gamma (Homo sapiens) (UniProt P37231).
T3 sequence (whole entry): T2 sequence (P37231 whole entry)
As to the kind of experiment: Transactivation of Gal4-tagged PPARgamma ligand binding domain (unknown origin) expressed in COS7 cells measured after overnight incubation by luciferase reporter gene assay relative to piaglitazone. The format is cell-based. The note with it: Chlorocebus aethiops; COS-7.

Experiment [4] concerns the target T4, Peroxisome proliferator-activated receptor delta (Homo sapiens) (UniProt Q03181).
T4 sequence (whole entry): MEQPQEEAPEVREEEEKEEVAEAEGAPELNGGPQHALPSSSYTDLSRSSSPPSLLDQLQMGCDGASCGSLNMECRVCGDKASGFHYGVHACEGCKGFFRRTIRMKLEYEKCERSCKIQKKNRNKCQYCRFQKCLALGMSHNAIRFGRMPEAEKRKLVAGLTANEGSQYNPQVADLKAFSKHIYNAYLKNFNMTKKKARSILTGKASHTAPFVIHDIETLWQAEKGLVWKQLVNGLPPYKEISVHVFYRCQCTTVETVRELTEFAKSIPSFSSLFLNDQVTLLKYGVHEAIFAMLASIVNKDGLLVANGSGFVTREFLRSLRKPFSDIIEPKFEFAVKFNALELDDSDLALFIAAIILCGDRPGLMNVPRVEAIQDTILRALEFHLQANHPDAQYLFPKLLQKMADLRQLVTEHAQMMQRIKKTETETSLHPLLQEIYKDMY
As to the kind of experiment: Transactivation of Gal4-tagged PPARdelta ligand binding domain (unknown origin) expressed in COS7 cells at 30 uM measured after overnight incubation by luciferase reporter gene assay. The experiment is classed as cell-based. The note with it: COS-7.

Experiment [5] has as its target T5, Bile acid receptor (Homo sapiens) (UniProt Q96RI1).
T5 sequence (whole entry): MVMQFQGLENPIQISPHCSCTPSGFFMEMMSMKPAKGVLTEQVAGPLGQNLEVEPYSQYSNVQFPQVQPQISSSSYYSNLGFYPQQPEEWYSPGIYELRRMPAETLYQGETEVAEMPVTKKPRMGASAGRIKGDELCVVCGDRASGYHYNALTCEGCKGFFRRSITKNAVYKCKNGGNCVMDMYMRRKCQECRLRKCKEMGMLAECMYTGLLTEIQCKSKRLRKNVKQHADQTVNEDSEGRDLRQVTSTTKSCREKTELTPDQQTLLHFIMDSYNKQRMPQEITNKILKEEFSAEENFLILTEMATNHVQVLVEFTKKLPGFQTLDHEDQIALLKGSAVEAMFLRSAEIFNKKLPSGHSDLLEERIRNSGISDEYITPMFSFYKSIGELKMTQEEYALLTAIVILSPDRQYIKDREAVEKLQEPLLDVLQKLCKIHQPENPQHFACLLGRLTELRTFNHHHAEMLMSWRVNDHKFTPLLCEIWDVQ
As to the kind of experiment: Transactivation of human FXR expressed in human HeLa cells at 30 uM incubated for 24 hrs by luciferase reporter gene assay. The format is cell-based.

Experiment [6] addresses T6, Peroxisome proliferator-activated receptor alpha (Homo sapiens, UniProt Q07869).
T6 sequence (Q07869 whole entry): T1 sequence (whole entry)
The experiment is described as follows: Transactivation of Gal4-tagged PPARalpha ligand binding domain (unknown origin) expressed in COS7 cells measured after overnight incubation by luciferase reporter gene assay. The format is cell-based, COS-7.

Experiment [7] deals with T5, Bile acid receptor (Homo sapiens). As to the kind of experiment: Transactivation of human FXR expressed in human HeLa cells incubated for 24 hrs by luciferase reporter gene assay relative to GW4064. The experiment is classed as cell-based.
In experiment [8] the target is T3, Peroxisome proliferator-activated receptor gamma (Homo sapiens). As to the kind of experiment: Transactivation of Gal4-tagged PPARgamma ligand binding domain (unknown origin) expressed in COS7 cells at 30 uM measured after overnight incubation by luciferase reporter gene assay. The format is cell-based. Conditions: COS-7.
Experiment [9] deals with T7, Peroxisome proliferator-activated receptor delta (Homo sapiens, UniProt Q03181).
T7 sequence (Q03181 whole entry): T4 sequence (whole entry)
As to the kind of experiment: Transactivation of Gal4-tagged PPARdelta ligand binding domain (unknown origin) expressed in COS7 cells measured after overnight incubation by luciferase reporter gene assay. The format is cell-based, COS-7.

In experiment [10] the target is T4, Peroxisome proliferator-activated receptor delta (Homo sapiens). The experiment is described as follows: Transactivation of Gal4-tagged PPARdelta ligand binding domain (unknown origin) expressed in COS7 cells measured after overnight incubation by luciferase reporter gene assay relative to L165,041. The format is cell-based. Conditions: Chlorocebus aethiops; COS-7.

Calls of active or inactive are those of the source. The calls are words filed in the database; no cut-off is given here.

`O=C(O)CCCNC(=O)c1ccccc1NC(=O)c1ccccc1-c1ccccc1`: the outcome in experiment [1], in [4] and in [5] was inactive. In experiment [2], this molecule showed an EC50 of 23 µM. Also, in [3], the max activation turned out to be 45%.
On to `COc1ccc(NC(=O)c2ccccc2NC(=O)c2ccc(C(C)(C)C)cc2)cc1C(=O)O`, for which the EC50 in experiment [6] turned out to be 0.74 µM; in [2], 4.4 µM. Besides, the max activation in [3] was determined as 96%; in experiment [7], 19%. The result in [4] was inactive.
Take `CC(C)(C)c1ccc(C(=O)Nc2c(Cl)cccc2C(=O)Nc2cccc(C(=O)O)c2)cc1`: the outcome in experiment [1], in [8], in experiment [4] and in experiment [5] was inactive.
Consider `Cc1c(NC(=O)c2ccccc2NC(=O)c2ccc(C(C)(C)C)cc2)cccc1C(=O)O`, for which the outcome in [1] and in experiment [4] was inactive. Moreover, in experiment [2], the EC50 was determined as 13.5 µM. Besides, the max activation was 70% in experiment [3] and 19% in experiment [7].
For the molecule `COc1ccc(C(=O)O)cc1NC(=O)c1ccccc1NC(=O)c1ccc(C(C)(C)C)cc1`, the EC50 in [6] was 2.9 µM; in experiment [2] it was 4.5 µM. The max activation is 154% in [3] and 15% in experiment [7]. In experiment [4], the outcome was inactive.
`CC(C)(C)c1ccc(C(=O)Nc2ccccc2C(=O)NCCCC(=O)O)cc1`: the outcome in [1], in experiment [8] and in [4] was inactive.
Turning to `COc1cccc(NC(=O)c2ccccc2NC(=O)c2ccc(C(C)(C)C)cc2)c1`, the outcome in [1], in experiment [8] and in experiment [4] was inactive. The molecule also gave a max activation in experiment [7] of 13%.
`O=C(O)CCCNC(=O)c1ccccc1NC(=O)c1cccc(-c2ccccc2)c1`: the EC50 came out at 10 µM in experiment [6] and 37 µM in experiment [2]. This molecule also came in with a max activation in experiment [3] of 229%. Also, the result in [4] and in [5] was inactive.
On to `CC(C)(C)c1ccc(C(=O)Nc2ccccc2C(=O)Nc2ccc(Cl)c(C(=O)O)c2)cc1`, for which the EC50 in experiment [6] is 9.1 µM; in experiment [2] it was 5.4 µM. The max activation amounted to 98% in experiment [3] and 19% in experiment [7]. In addition, in experiment [4], the outcome was inactive.
As for `O=C(O)c1cccc(NC(=O)c2ccccc2NC(=O)c2ccc3ccccc3c2)c1`, the half-maximal effective concentration (EC50) in experiment [6] stood at 1.96 µM; in experiment [2], 5.5 µM; in experiment [9], 4.7 µM. The max activation in experiment [3] was found to be 126%; in experiment [10] it was 51%.
As to `CC(C)(C)c1ccc(C(=O)Nc2ccccc2C(=O)Nc2cccc(CC(=O)O)c2)cc1`, the EC50 was 4.4 µM in experiment [6], 6.2 µM in experiment [2] and 5.4 µM in experiment [9]. Besides, the max activation in experiment [3] was 121%; in experiment [10], 46%; in experiment [7] it was 26%.
Regarding `CC(C)(C)c1ccc(C(=O)Nc2ccccc2C(=O)Nc2ccc(Br)c(C(=O)O)c2)cc1`, the figures for the EC50 in experiment [6] and in experiment [2] were 4.1 µM and 6.3 µM, respectively. Also, the max activation in experiment [3] came to 82%; in experiment [7], 16%. In addition, in experiment [4], the outcome was inactive.
As to `O=C(O)c1cccc(NC(=O)c2ccccc2NC(=O)c2ccc(C(F)(F)F)c(F)c2)c1`, the figures for the concentration for a half-maximal effect (EC50) in experiment [6], in experiment [2] and in experiment [9] were 2.2 µM, 6.9 µM and 3 µM, respectively. The max activation in [3] is 240%; in experiment [10], 37%; in experiment [7] it was 32%.
On to `O=C(O)CCCNC(=O)c1ccccc1NC(=O)c1ccc2ccccc2c1`, for which the outcome in experiment [1] and in experiment [4] was inactive. The same molecule returned a 50% effective concentration (EC50) in experiment [2] of 18.1 µM. The molecule further gave a max activation in [3] of 432%.
In the case of `O=C(O)c1cccc(NC(=O)c2ccccc2NC(=O)c2ccc3c(c2)OCO3)c1`, the EC50 in experiment [6] was found to be 19 µM; in experiment [2], 25 µM. Further, the max activation in experiment [3] amounted to 221%; in experiment [7], 12%. The outcome in experiment [4] was inactive.
For `CC(C)(C)c1ccc(C(=O)Nc2ccccc2C(=O)Nc2cccc(C(=O)O)c2)cc1`, the EC50 in experiment [6] turned out to be 1.3 µM; in experiment [2], 3.9 µM. The max activation in experiment [3] turned out to be 348%; in experiment [7] it was 9.4%. The result in experiment [4] was inactive.
For `O=C(O)c1cccc(NC(=O)c2ccccc2NC(=O)c2ccc(C(F)(F)F)cc2)c1`, the EC50 in experiment [6] was 5.8 µM; in experiment [2], 8.5 µM; in experiment [9], 3.2 µM. The max activation in experiment [3] was 384%; in experiment [10], 46%; in experiment [7] it was 26%.
Consider `O=C(O)c1ccc(NC(=O)c2ccccc2NC(=O)c2ccc3ccccc3c2)cc1`, for which the result in experiment [1] and in [4] was inactive. The 50% effective concentration (EC50) in experiment [2] worked out at 21 µM. The max activation in experiment [3] was 639%.
Regarding `O=C(O)CCCCNC(=O)c1ccccc1NC(=O)c1ccc2ccccc2c1`, the outcome in experiment [1] and in [4] was inactive. In addition, a half-maximal effect in experiment [2] (EC50) was put at 26 µM. In addition, the max activation in experiment [3] is 269%.
`CC(C)(C)c1ccc(C(=O)Nc2ccccc2C(=O)Nc2cccc(C#N)c2)cc1`: the result in experiment [1], in experiment [8] and in [4] was inactive. The same molecule had a max activation in [7] of 18%.
For `O=C(O)CCCNC(=O)c1ccccc1NC(=O)c1ccc(-c2ccccc2)cc1`, the result in experiment [1], in [4] and in [5] was inactive. The molecule further registered an EC50 in experiment [2] of 13 µM. The max activation in experiment [3] was determined as 135%.
Turning to `O=C(O)c1cccc(NC(=O)c2ccccc2NC(=O)c2ccc(Br)cc2)c1`, the 50% effective concentration (EC50) in experiment [6] was 3.6 µM; in experiment [2], 4.5 µM; in experiment [9] it was 12 µM. Besides, the max activation in experiment [3] turned out to be 58%; in experiment [10], 44%; in [7] it was 14.3%.

Source of the values: ChEMBL document CHEMBL3393039, “Anthranilic acid derivatives as nuclear receptor modulators--development of novel PPAR selective and dual PPAR/FXR ligands” (Bioorg Med Chem, 2015).
